From the NIST ThermoML archive (doi:10.1016/j.jct.2004.12.002)

Tests used:
[1] = 101 kPa, Liquid
[2] = xn = mol fraction of the nth substance listed; settings: 101 kPa, Liquid

CCO [ethanol]
[1]
Settings	mass density [kg/m3]
293.22 K	789.54
298.16 K	785.46
303.17 K	781.05
308.17 K	776.75
313.17 K	772.42
318.18 K	768

CCO [ethanol] + CCCCCCC
[2], x1 = 1
Settings	mass density [kg/m3]
293.22 K	789.54
298.16 K	785.46
303.17 K	781.05
308.17 K	776.75
313.17 K	772.42
318.18 K	768

CCCCCCC [heptane]
[1]
Settings	mass density [kg/m3]
293.22 K	683.82
298.16 K	679.75
303.17 K	675.51
308.17 K	671.21
313.17 K	666.97
318.18 K	662.67

CCCCCCC [heptane] + CCO
mass density [kg/m3], [2]
Settings	293.21 K	293.22 K	298.16 K	298.17 K	303.17 K	308.17 K	313.17 K	318.17 K	318.18 K
x2 = 0	–	683.82	679.75	–	675.51	671.21	666.97	–	662.67
x2 = 0.0237	–	684.36	–	680.19	675.81	671.53	667.19	663.59	–
x2 = 0.0507	–	685.26	–	681.04	676.65	672.35	667.92	–	662.82
x2 = 0.1041	–	687.27	–	683.06	678.74	674.32	669.78	665.46	–
x2 = 0.2043	691.74	–	–	687.5	683.12	678.62	674.12	669.66	–
x2 = 0.3044	697.14	–	–	692.93	688.45	683.9	679.46	674.88	–
x2 = 0.3971	703.04	–	–	698.76	694.32	689.82	685.29	680.74	–
x2 = 0.4975	710.62	–	–	706.35	701.88	697.41	692.92	688.34	–
x2 = 0.6043	–	720.54	–	716.27	711.77	707.35	702.8	698.25	–
x2 = 0.6954	730.78	–	–	726.58	722.09	717.65	713.21	708.71	–
x2 = 0.8023	745.94	–	–	741.81	737.39	733.18	728.57	724.14	–
x2 = 0.9009	764.36	–	–	760.18	755.87	751.57	747.21	742.91	–
x2 = 0.9531	–	776.53	–	772.37	768.14	763.83	759.41	–	754.95
